Measured values taken from patent publication US11638427B2, “Methods and compositions for altering secondary metabolites in plants” (Impello Biosciences, Inc, priority 2020, dated 2023).
“And” between values parts separate entries of the source, which are not always exact repeats. Identical values can stand only once.

Test system: CBDRx Cherry hemp clones
Test: Foliar spray of MS, MDJ and MS+MDJ on hemp clones: biomass, cannabinoid and terpene analysis
Assay type: in vivo, Cannabis spp.
Design: CBDA / CBD / THCA / Total CBG / Total cannabinoids: unit not given here
Details: for plants died before the end of the experiment: four plants per treatment group
Description: Methyl salicylate (MS) is an antagonistic compound to the jasmonates. To investigate the effect of MS alone and in conjunction with MDJ, MS (CAS No.: 119-36-8), MDJ, and the combination (MS+MDJ) were applied by foliar spray to CBDRx Cherry hemp clones once per week during both vegetative and flowering phases. Plants were transplanted into 1-gallon pots with Red's soil and put into vegetative light cycle (18L/6D). […] Plants were grown under a total of 12 Boost (Thrive Agritech, NY) 130-watt LED lights set to 18L: 6D photoperiod during the vegetative phase (2 weeks) and this was followed by a 12L: 12D photoperiod during the flowering phase (7 weeks), using the same lighting fixtures. Throughout the nine weeks, all plants were watered when needed with Jack's nutrients.
MS or MDJ treatments were applied at the following concentrations: [1 mM], [4.25 mM], [7.5 mM] and [10 mM]. Each concentration was prepared from a one molar stock solution diluted with RO water and TWEEN®-20 (1M stock) was added. Each plant was sprayed till dripping, which was approximately 50-75 ml. To apply the combination of the two biochemicals, MS and MDJ were sprayed separately but simultaneously, to ensure each compound was applied evenly onto the plant. Each compound was applied using a SPRAYMASTER Chemical Sprayer (King of Prussia, Pa.).
Plants were harvested two months after transplant. After harvesting, plants were air dried at room temperature for two weeks. Once plants were sufficiently dry, above ground dry weights were recorded and dried flower samples were collected and sent to a third-party lab for terpene and cannabinoid analysis. Two plants (#3 and #4) in treatment group MDJ [7.5] mM, two plants (#3 and #4) in MS [4.25] mM, one plant (#4) in MS [7.5], and one plant (#4) in MDJ [10] died before the end of the experiment.

[1] = 1 mM foliar spray, Avg. of group
[2] = 1 mM foliar spray, individual plant
[3] = 4.25 mM foliar spray, Avg. of group
[4] = 4.25 mM foliar spray, individual plant
[5] = 7.5 mM foliar spray, Avg. of group
[6] = 7.5 mM foliar spray, individual plant
[7] = 10 mM foliar spray, Avg. of group
[8] = 10 mM foliar spray, individual plant

COC(=O)c1ccccc1O [MS, Methyl salicylate]
Alpha-bisabolol [1]: 0.08263 % wt/wt
Alpha-humulene [1]: 0.07955 % wt/wt
Beta-caryophyllene [1]: 0.2069 % wt/wt
CBCA [1]: 0.715
CBD [1]: 0.105
CBDA [1]: 13.675
CBGA [1]: 0.365
Limonene [1]: 0.1101 % wt/wt
THCA [1]: 0.6
Total CBD [1]: 12.1025
Total CBG [1]: 0.32
Total cannabinoids [1]: 15.46
Total d9THC [1]: 0.525
alpha-pinene [1]: 0 % wt/wt
beta-myrcene [1]: 0.8188 % wt/wt
beta-pinene [1]: 0.02077 % wt/wt
total terpenes [1]: 1.435 % wt/wt
Alpha-bisabolol [2]: 0.0925 % wt/wt and 0.1053 % wt/wt and 0.1236 % wt/wt and 0.00912 % wt/wt
Alpha-humulene [2]: 0.076 % wt/wt and 0.0724 % wt/wt and 0.0922 % wt/wt and 0.0776 % wt/wt
Beta-caryophyllene [2]: 0.1974 % wt/wt and 0.1911 % wt/wt and 0.243 % wt/wt and 0.1959 % wt/wt
CBCA [2]: 0.82 and 0.64 and 0.67 and 0.73
CBD [2]: 0.13 and 0 and 0.12 and 0.17
CBDA [2]: 15.19 and 12.85 and 13.24 and 13.42
CBGA [2]: 0.42 and 0.34 and 0.32 and 0.38
Limonene [2]: 0.1096 % wt/wt and 0.11 % wt/wt and 0.1101 % wt/wt and 0.1106 % wt/wt
THCA [2]: 0.66 and 0.56 and 0.58 and 0.6
Total CBD [2]: 13.45 and 11.27 and 11.74 and 11.95
Total CBG [2]: 0.37 and 0.3 and 0.28 and 0.33
Total cannabinoids [2]: 17.22 and 14.39 and 14.93 and 15.3
Total d9THC [2]: 0.58 and 0.49 and 0.51 and 0.52
alpha-pinene [2]: 0 % wt/wt
beta-myrcene [2]: 0.7692 % wt/wt and 0.8926 % wt/wt and 0.845 % wt/wt and 0.7684 % wt/wt
beta-pinene [2]: 0.0215 % wt/wt and 0.0201 % wt/wt and 0.021 % wt/wt and 0.0205 % wt/wt
total terpenes [2]: 1.36 % wt/wt (2×) and 1.48 % wt/wt and 1.54 % wt/wt
Alpha-bisabolol [3]: 0.1143 % wt/wt
Alpha-humulene [3]: 0.0794 % wt/wt
Beta-caryophyllene [3]: 0.1996 % wt/wt
CBCA [3]: 0.61
CBD [3]: 0.16
CBDA [3]: 11.8
CBGA [3]: 0.275
Limonene [3]: 0.1 % wt/wt
THCA [3]: 0.51
Total CBD [3]: 10.505
Total CBG [3]: 0.24
Total cannabinoids [3]: 13.355
Total d9THC [3]: 0.45
alpha-pinene [3]: 0 % wt/wt
beta-myrcene [3]: 0.7751 % wt/wt
beta-pinene [3]: 0.0197 % wt/wt
total terpenes [3]: 1.38 % wt/wt
plants died before the end of the experiment (4.25 mM foliar spray): two plants
Alpha-bisabolol [4]: 0.1185 % wt/wt and 0.1101 % wt/wt
Alpha-humulene [4]: 0.0819 % wt/wt and 0.0769 % wt/wt
Beta-caryophyllene [4]: 0.2091 % wt/wt and 0.19 % wt/wt
CBCA [4]: 0.61
CBD [4]: 0.15 and 0.17
CBDA [4]: 11.88 and 11.72
CBGA [4]: 0.27 and 0.28
Limonene [4]: 0.1042 % wt/wt and 0.0958 % wt/wt
THCA [4]: 0.52 and 0.5
Total CBD [4]: 10.57 and 10.44
Total CBG [4]: 0.24
Total cannabinoids [4]: 13.43 and 13.28
Total d9THC [4]: 0.46 and 0.44
alpha-pinene [4]: 0 % wt/wt
beta-myrcene [4]: 0.8061 % wt/wt and 0.744 % wt/wt
beta-pinene [4]: 0.0209 % wt/wt and 0.0185 % wt/wt
total terpenes [4]: 1.43 % wt/wt and 1.33 % wt/wt
Alpha-bisabolol [5]: 0.1235 % wt/wt
Alpha-humulene [5]: 0.09093 % wt/wt
Beta-caryophyllene [5]: 0.23 % wt/wt
CBCA [5]: 0.66
CBD [5]: 0.1833
CBDA [5]: 12.833
CBGA [5]: 0.41
Limonene [5]: 0.09533 % wt/wt
THCA [5]: 0.57
Total CBD [5]: 11.44
Total CBG [5]: 0.356
Total cannabinoids [5]: 14.656
Total d9THC [5]: 0.5
alpha-pinene [5]: 0 % wt/wt
beta-myrcene [5]: 0.7014 % wt/wt
beta-pinene [5]: 0 % wt/wt
total terpenes [5]: 1.343 % wt/wt
plants died before the end of the experiment (7.5 mM foliar spray): one plant
Alpha-bisabolol [6]: 0.1154 % wt/wt and 0.1201 % wt/wt and 0.1349 % wt/wt
Alpha-humulene [6]: 0.0878 % wt/wt and 0.083 % wt/wt and 0.102 % wt/wt
Beta-caryophyllene [6]: 0.2204 % wt/wt and 0.2101 % wt/wt and 0.2595 % wt/wt
CBCA [6]: 0.68 (2×) and 0.62
CBD [6]: 0.3 and 0.1 and 0.15
CBDA [6]: 12.97 and 12.23 and 13.3
CBGA [6]: 0.4 and 0.37 and 0.46
Limonene [6]: 0.0902 % wt/wt and 0.0968 % wt/wt and 0.099 % wt/wt
THCA [6]: 0.57 and 0.55 and 0.59
Total CBD [6]: 11.68 and 10.83 and 11.81
Total CBG [6]: 0.35 and 0.32 and 0.4
Total cannabinoids [6]: 14.92 and 13.87 and 15.18
Total d9THC [6]: 0.5 and 0.48 and 0.52
alpha-pinene [6]: 0 % wt/wt
beta-myrcene [6]: 0.6564 % wt/wt and 0.7151 % wt/wt and 0.7328 % wt/wt
beta-pinene [6]: 0 % wt/wt
total terpenes [6]: 1.27 % wt/wt and 1.32 % wt/wt and 1.44 % wt/wt
Alpha-bisabolol [7]: 0.109 % wt/wt
Alpha-humulene [7]: 0.07612 % wt/wt
Beta-caryophyllene [7]: 0.1899 % wt/wt
CBCA [7]: 0.73
CBD [7]: 0.155
CBDA [7]: 14.5975
CBGA [7]: 0.4775
Limonene [7]: 0.1418 % wt/wt
THCA [7]: 0.625
Total CBD [7]: 12.96
Total CBG [7]: 0.42
Total cannabinoids [7]: 16.585
Total d9THC [7]: 0.55
alpha-pinene [7]: 0.01702 % wt/wt
beta-myrcene [7]: 1.084 % wt/wt
beta-pinene [7]: 0.02447 % wt/wt
total terpenes [7]: 1.725 % wt/wt
Alpha-bisabolol [8]: 0.1326 % wt/wt and 0.0981 % wt/wt and 0.1139 % wt/wt and 0.0915 % wt/wt
Alpha-humulene [8]: 0.0912 % wt/wt and 0.0723 % wt/wt and 0.0736 % wt/wt and 0.0674 % wt/wt
Beta-caryophyllene [8]: 0.2182 % wt/wt and 0.1794 % wt/wt and 0.192 % wt/wt and 0.1699 % wt/wt
CBCA [8]: 0.71 and 0.73 and 0.72 and 0.76
CBD [8]: 0.17 and 0.12 and 0.33 and 0
CBDA [8]: 15.33 and 14.37 and 13.89 and 14.8
CBGA [8]: 0.5 (2×) and 0.46 and 0.45
Limonene [8]: 0.213 % wt/wt and 0.1272 % wt/wt and 0.113 % wt/wt and 0.1141 % wt/wt
THCA [8]: 0.65 and 0.63 (2×) and 0.59
Total CBD [8]: 13.61 and 12.73 and 12.52 and 12.98
Total CBG [8]: 0.44 (2×) and 0.4 (2×)
Total cannabinoids [8]: 17.36 and 16.31 and 15.98 and 16.69
Total d9THC [8]: 0.57 and 0.55 and 0.52 and 0.56
alpha-pinene [8]: 0.0398 % wt/wt and 0.0283 % wt/wt and 0 % wt/wt (2×)
beta-myrcene [8]: 1.6091 % wt/wt and 0.9913 % wt/wt and 0.8332 % wt/wt and 0.9015 % wt/wt
beta-pinene [8]: 0.0299 % wt/wt and 0.023 % wt/wt and 0.0257 % wt/wt and 0.0193 % wt/wt
total terpenes [8]: 2.43 % wt/wt and 1.6 % wt/wt and 1.43 % wt/wt and 1.44 % wt/wt
total terpene content (application of 1 mM or 4.25 mM): increased
Aboveground fresh weight and dried weight compared to the control plants (at both 1 mM and 10 mM): significantly reduced
